The source made the active and inactive calls. No rule for the calls is given here.
Target: Serine/threonine-protein kinase mTOR (Homo sapiens) (UniProt P42345)
Assay: binders of mTOR FRB domain, biophysical, NMR (AID 1648)
Settings: NMR binding to FRB domain, chemical shift

Serine/threonine-protein kinase mTOR (Homo sapiens), sequence (P42345 2015-2114): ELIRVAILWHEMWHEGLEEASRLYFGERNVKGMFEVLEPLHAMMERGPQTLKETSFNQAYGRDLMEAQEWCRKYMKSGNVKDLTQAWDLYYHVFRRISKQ

Compound | Kd
Cc1nnsc1-c1onc(C)c1C(=O)O | > 4 mM (inactive)
NC(=O)CSc1ccccn1 | > 4 mM (inactive)
CCP(=O)(CC)c1cccc(C)c1 | > 4 mM (inactive)
COC(=O)c1ccccc1C | > 4 mM (inactive)
NC(=O)CSCc1c(Cl)cccc1Cl | > 4 mM (inactive)
CC1=[N+]([O-])C2(N)CCc3c(no[n+]3[O-])C2(O)C1 (stereo unspecified) | > 4 mM (inactive)
COCc1c(CN)cnc(C)c1N | > 4 mM (inactive)
Cc1ccc(C(C)C)cc2c(C)ccc1-2 | > 4 mM (inactive)
CCCCCCCCCCCCCCC(C(=O)OC)C(O)(CC(=O)OC)C(=O)OC (stereo unspecified) | > 4 mM (inactive)
CNC(=O)c1ccccc1-c1ccccc1 | > 4 mM (inactive)
O=C1C2C3C=CC(C3)C2C(=O)N1c1ccccn1 (stereo unspecified) | > 4 mM (inactive)
Cc1ccc(C(=O)NC2=NCCS2)o1 | > 4 mM (inactive)
O=C(Nc1ccc2c(c1)CCC2)c1cnccn1 | > 4 mM (inactive)
O=C(CSc1nc2ccccc2[nH]1)N1CCCCC1 | > 4 mM (inactive)
Cc1nc(-c2cnccn2)sc1C(=O)O | > 4 mM (inactive)
O=C1CNC(=O)N1Cc1ccc(F)cc1 | > 4 mM (inactive)
O=C(c1ccc(Cl)c(F)c1F)N1CCCC1 | > 4 mM (inactive)
Cc1nc2ccc(C(=O)O)cc2[nH]1 | > 4 mM (inactive)
NCC(N)C(=O)c1ccccc1 (stereo unspecified) | > 4 mM (inactive)
COc1ccccc1Nc1nncc(=O)[nH]1 | > 4 mM (inactive)
O=C1CC(N2CCC(O)CC2)C(=O)N1c1ccc(F)cc1 (stereo unspecified) | > 4 mM (inactive)
Cc1sc2nc(SC3CCOC3=O)[nH]c(=O)c2c1C (stereo unspecified) | > 4 mM (inactive)
c1ccc(C[N+]23CCN(CC2)c2ccccc23)cc1 | > 4 mM (inactive)
O=C(Nc1cccc2cccnc12)c1cccnc1 | > 4 mM (inactive)
CCCOn1nnnc1-c1ccccc1 | > 4 mM (inactive)

Compound | Kd
C(=N\n1cnnc1)/c1cccs1 | > 4 mM (inactive)
COc1ccc(N2C(=O)CCC2=O)c(OC)c1 | > 4 mM (inactive)
CCCc1ncc(C(O)c2cccc3ccccc23)n1C (stereo unspecified) | > 4 mM (inactive)
Nc1ncc2[nH]cnc2n1 | > 4 mM (inactive)
Cc1nc2ccccc2c2c1C(=O)N(C)C2=O | > 4 mM (inactive)
NCc1cccc2c1OCCO2 | > 4 mM (inactive)
CCOC(=O)c1ccc(F)cc1F | > 4 mM (inactive)
C=C1C2CC[C@@]3(C)[C@H](c4ccoc4)OC(=O)C[C@]13O[C@H]1CC(=O)C(C)(C)[C@H](C(OC(C)=O)C(=O)OC)[C@@]21C (stereo partly specified) | > 4 mM (inactive)
O=C(NCc1ccco1)c1ccc(=O)[nH]c1 | > 4 mM (inactive)
Cc1cccc(C(C)C)c1NC(=O)c1cccnc1 | > 4 mM (inactive)
Cc1cc(C)nc(/N=C(/N)N2CCC(C(N)=O)CC2)n1 | > 4 mM (inactive)
Nc1ncnc(NCc2cccnc2)c1[N+](=O)[O-] | > 4 mM (inactive)
CCOC(=O)c1cc(C)n(C)n1 | > 4 mM (inactive)
O=C1Nc2ccccc2C1C1(O)C(=O)Nc2ccc(F)cc21 (stereo unspecified) | > 4 mM (inactive)
S=c1[nH]ncn1-c1ccccc1 | > 4 mM (inactive)
CCCCCCCCCCCCCCCCCCOCC(O)CO (stereo unspecified) | > 4 mM (inactive)
OCc1csc(-c2cccs2)n1 | > 4 mM (inactive)
CC1(C)CC2(C)N(N)C(=O)CN2C(=S)N1 (stereo unspecified) | > 4 mM (inactive)
O=c1[nH]c2c(c(=O)n1C1CCCCC1)CCC2 | > 4 mM (inactive)
O=C1c2cccc3cc(S(=O)(=O)O)cc(c23)C(=O)N1O | > 4 mM (inactive)
COC(=O)c1cc(-c2c[nH]c3ccccc23)n[nH]1 | > 4 mM (inactive)
O=C(O)CNC(=O)c1ccccc1 | > 4 mM (inactive)
CCOC(=O)c1cnc2sccn2c1=O | > 4 mM (inactive)
CCc1c(C)[nH]c(=S)c(C(N)=O)c1C | > 4 mM (inactive)
Cc1c(CO)cnn1-c1ccc(F)cc1 | > 4 mM (inactive)

Compound | Kd
CC(C)c1c(O)ccc2c1CCC1[C@@](C)(C=O)CCC[C@]21C (stereo partly specified) | > 4 mM (inactive)
COc1cc(C)c2c(c1C=O)Oc1c(c(C)c(O)c3c1C(O)OC3=O)OC2=O (stereo unspecified) | > 4 mM (inactive)
CSc1nc2nccc(N)n2n1 | > 4 mM (inactive)
O=C(Nc1ccon1)c1csc2c1CCCC2 | > 4 mM (inactive)
O=P1(O)c2ccccc2Nc2ccccc21 | > 4 mM (inactive)
O=C(c1ccccc1)c1ccccc1C(=O)N1CCCC1 | > 4 mM (inactive)
Nc1ccc2c(c1)CCCC2=O | > 4 mM (inactive)
C[C@H](CCC(=O)O)[C@H]1CCC2C3C(CC[C@@]21C)[C@@]1(C)CC[C@@H](O)C[C@H]1C[C@@H]3O (stereo partly specified) | > 4 mM (inactive)
CS(C)=C1C(=O)NC(=O)N(c2ccccc2)C1=O | > 4 mM (inactive)
CN1C(=O)C(Cc2c[nH]c3ccccc23)C(=O)N(C)C1=O | > 4 mM (inactive)
Nc1ccc(N2CCCCC2)cc1 | > 4 mM (inactive)
NC(=O)c1ccsc1NC(=O)c1cccnc1 | > 4 mM (inactive)
O=C(O)c1ccc(N2CCCCC2)cc1 | > 4 mM (inactive)
c1cncc(-c2nnc(-c3cccnc3)nn2)c1 | > 4 mM (inactive)
O=c1cc(-c2ccc(O)cc2)oc2cc(O)cc(O)c12 | > 4 mM (inactive)
COc1ccc2c(c1)OCC(Cc1ccc(OC)c(OC(C)=O)c1)C2=O (stereo unspecified) | > 4 mM (inactive)
Cc1nc(-c2ccccc2)sc1CO | > 4 mM (inactive)
Cc1nn2c(=O)nc3sc4c(c3c2[nH]c1=O)CCCC4 | > 4 mM (inactive)
CC(=O)O[C@H]1C[C@@H](OC(C)=O)C(C)(C)C2C[C@@H](OC(C)=O)[C@]3(C)C([C@H](OC(C)=O)C[C@@]4(C)[C@H](c5ccoc5)OC(=O)[C@H]5O[C@]543)[C@]21C (stereo partly specified) | > 4 mM (inactive)
CCN1CCc2c(sc(N)c2C#N)C1 | > 4 mM (inactive)
CC(=O)N1C(=S)NC(=O)/C1=C\c1cccnc1 | > 4 mM (inactive)
Nc1nc(-c2ccncc2)cs1 | > 4 mM (inactive)
Cc1cc(C)n(-c2ccc(Cl)nn2)n1 | > 4 mM (inactive)
CN(C)Cc1nc2c([nH]1)c(=O)[nH]c(=O)n2C | > 4 mM (inactive)
Cc1c(N=CN2CCOCC2)c(=O)n(C)c(=O)n1C | > 4 mM (inactive)

Compound | Kd
C[C@@H]1CC[C@@]2(OC1)O[C@H]1CC3C4CC[C@H]5C[C@@H](O)CC[C@]5(C)C4CC[C@]3(C)[C@H]1[C@@H]2C (stereo partly specified) | > 4 mM (inactive)
Cc1n[nH]c(C)c1CC(=O)O | > 4 mM (inactive)
O=C1CSC(=Nc2ccccc2)N1 | > 4 mM (inactive)
COc1ccc2[nH]cc(CN(C)C)c2c1 | > 4 mM (inactive)
Cc1cc(C(=O)Nc2sc3c(c2C#N)CCC3)no1 | > 4 mM (inactive)
CCOC(=O)Cc1cc(=O)n2[nH]c(C)cc2n1 | > 4 mM (inactive)
O=C(O)c1ccc2ccccc2n1 | > 4 mM (inactive)
Cc1n[nH]c(C)c1-c1ccccc1C(=O)O | > 4 mM (inactive)
O=C(O)c1cnc2n(c1=O)CCS2 | > 4 mM (inactive)
NC(=O)c1ccccc1NC(=O)C1CCCO1 (stereo unspecified) | > 4 mM (inactive)
NCc1ccc(-c2csnn2)cc1 | > 4 mM (inactive)
CC(=O)Nc1ccn(-c2ccccc2)n1 | > 4 mM (inactive)
Cc1cc(/C=N/O)nc(=O)[nH]1 | > 4 mM (inactive)
COc1ccc2c(=O)c(CC(=O)O)coc2c1 | > 4 mM (inactive)
COC(=O)C1=CO[C@@H](O[C@@H]2O[C@H](CO)[C@@H](O)[C@H](O)[C@H]2O)[C@@H]2[C@@H](C)[C@@H](O)C[C@H]12 | > 4 mM (inactive)
COc1c2ccccc2nc2occc12 | > 4 mM (inactive)
CC(=O)c1cccc(NC(=O)C=C(C)C)c1 | > 4 mM (inactive)
NC1=NC(=O)C(CC(=O)Nc2ccccc2F)S1 (stereo unspecified) | > 4 mM (inactive)
Cc1ccccc1-n1c(-c2ccncc2)n[nH]c1=S | > 4 mM (inactive)
CSc1ccccc1NC(=O)c1ccco1 | > 4 mM (inactive)
COc1cc(O)c(C(=O)c2ccccc2)cc1O | > 4 mM (inactive)
Brc1ccc(-c2nc(-c3ccncc3)no2)o1 | > 4 mM (inactive)
Cc1c(/C=N\n2cnnc2)c2ccccc2n1C | > 4 mM (inactive)
CNC(=O)c1ccccc1N | > 4 mM (inactive)
Cn1c(NCc2ccccc2O)nc2ccccc21 | > 4 mM (inactive)

Compound | Kd
O=C(Nc1ccon1)c1csc2ccccc12 | > 4 mM (inactive)
O=C(Nc1ccon1)c1ccc(Cl)s1 | > 4 mM (inactive)
Cc1c(C(=O)OC(C)C)[nH]c2c1C(=O)CCC2 | > 4 mM (inactive)
CCOc1ccc(-c2n[nH]c(=S)n2C)cc1 | > 4 mM (inactive)
CC(=O)O[C@H]1CCC2(C)C3=C(CCC2C1(C)C)[C@@]1(C)CC[C@@H](C(C)CCC=C(C)C)[C@]1(C)CC3 (stereo partly specified) | > 4 mM (inactive)
O=C1Nc2ccccc2C12OCCO2 | > 4 mM (inactive)
Clc1ccc2c(N3CCNCC3)ccnc2c1 | > 4 mM (inactive)
O=C1CSC(=NC(=O)c2ccccc2)N1 | > 4 mM (inactive)
CN(C)S(=O)(=O)c1ccc(C(=O)NN)cc1 | > 4 mM (inactive)
CC1CCN(C(=S)c2ccccc2O)CC1 | > 4 mM (inactive)
COc1cc(O)c2c(c1)C(=O)c1cc(C)cc(O)c1C2=O | > 4 mM (inactive)
c1csc(-c2nn[nH]n2)c1 | > 4 mM (inactive)
CC1=CC(=O)CC(C)(C)C1(O)/C=C/C(C)=C\C(=O)O (stereo unspecified) | > 4 mM (inactive)
COc1cc2c(cc1OC)Cc1cc(OC)c(OC)cc1Cc1cc(OC)c(OC)cc1C2 | > 4 mM (inactive)
CN1C(=O)/C(=C\c2ccc[nH]2)SC1=S | > 4 mM (inactive)
COc1ccc(Cl)c(S(=O)(=O)N2CCCC2)c1 | > 4 mM (inactive)
CC(=O)Nc1cccc(-c2nnc3n2CC(C)S3)c1 (stereo unspecified) | > 4 mM (inactive)
N#Cc1cc2ccccc2nc1N | > 4 mM (inactive)
COC(=O)Cc1cc(=O)n(-c2nc3ccccc3s2)[nH]1 | > 4 mM (inactive)
O=C(O)CCC(=O)Nc1ccccn1 | > 4 mM (inactive)
CCOC(=O)C1C(C=C(C)C)C1(C)C (stereo unspecified) | > 4 mM (inactive)
